Measured values taken from the kinase profiling compilation of Christmann-Franck et al. (2016).

How the values were obtained:
Assay in all cases: radiometric filter-binding kinase assay
[1] = molecular target: AURKB (human) (UniProt Q96GD4)
[2] = molecular target: CHEK2 (human) (UniProt O96017)
[3] = molecular target: MINK1 (human) (UniProt Q8N4C8)
[4] = molecular target: MAPK8 (human) (UniProt P45983)
[5] = molecular target: MAP2K1 (human) (UniProt Q02750)
[6] = molecular target: PKN2 (human) (UniProt Q16513)
[7] = molecular target: PAK6 (human) (UniProt Q9NQU5)
[8] = system: AKT1 (human), P31749 [S473D]
[9] = molecular target: CSK (human) (UniProt P41240)
[10] = molecular target: MAP3K7 TAB1 (human) (UniProt Q15750+O43318)
[11] = molecular target: MAPK10 (human) (UniProt P53779)
[12] = molecular target: IKBKB (human) (UniProt O14920)
[13] = molecular target: MARK2 (human) (UniProt Q7KZI7)
[14] = molecular target: DYRK3 (human) (UniProt O43781)
[15] = system: PAK2 (human), Q13177 [T402E]
[16] = molecular target: TAOK1 (human) (UniProt Q7L7X3)
[17] = molecular target: RPS6KA3 KD1 KD2 (human) (UniProt P51812)
[18] = molecular target: MAP3K11 (human) (UniProt Q16584)
[19] = molecular target: NUAK1 (human) (UniProt O60285)
[20] = molecular target: EPHA4 (human) (UniProt P54764)
[21] = system: LCK (mouse); settings: accession and sequence are those of the human protein
[22] = molecular target: EPHB2 (human) (UniProt P29323)
[23] = molecular target: SRC (human) (UniProt P12931)
[24] = molecular target: CaMK1 (human) (UniProt Q14012)
[25] = molecular target: MST4 (human) (UniProt Q9P289)
[26] = molecular target: GCK (human) (UniProt Q12851)
[27] = molecular target: PAK4 (human) (UniProt O96013)
[28] = system: ROCK2 (rat); settings: accession and sequence are those of the human protein
[29] = molecular target: TBK1 (human) (UniProt Q9UHD2)
[30] = molecular target: CDK2 CCNA2 (human) (UniProt P20248+P24941)
[31] = molecular target: TTK (human) (UniProt P33981)
[32] = molecular target: EPHB3 (human) (UniProt P54753)
[33] = molecular target: CHEK1 (human) (UniProt O14757)
[34] = molecular target: EPHA2 (human) (UniProt P29317)
[35] = molecular target: EPHB1 (human) (UniProt P54762)
[36] = molecular target: MYLK (human) (UniProt Q15746)

EPHA2 (human), sequence (P29317 whole entry, looked up): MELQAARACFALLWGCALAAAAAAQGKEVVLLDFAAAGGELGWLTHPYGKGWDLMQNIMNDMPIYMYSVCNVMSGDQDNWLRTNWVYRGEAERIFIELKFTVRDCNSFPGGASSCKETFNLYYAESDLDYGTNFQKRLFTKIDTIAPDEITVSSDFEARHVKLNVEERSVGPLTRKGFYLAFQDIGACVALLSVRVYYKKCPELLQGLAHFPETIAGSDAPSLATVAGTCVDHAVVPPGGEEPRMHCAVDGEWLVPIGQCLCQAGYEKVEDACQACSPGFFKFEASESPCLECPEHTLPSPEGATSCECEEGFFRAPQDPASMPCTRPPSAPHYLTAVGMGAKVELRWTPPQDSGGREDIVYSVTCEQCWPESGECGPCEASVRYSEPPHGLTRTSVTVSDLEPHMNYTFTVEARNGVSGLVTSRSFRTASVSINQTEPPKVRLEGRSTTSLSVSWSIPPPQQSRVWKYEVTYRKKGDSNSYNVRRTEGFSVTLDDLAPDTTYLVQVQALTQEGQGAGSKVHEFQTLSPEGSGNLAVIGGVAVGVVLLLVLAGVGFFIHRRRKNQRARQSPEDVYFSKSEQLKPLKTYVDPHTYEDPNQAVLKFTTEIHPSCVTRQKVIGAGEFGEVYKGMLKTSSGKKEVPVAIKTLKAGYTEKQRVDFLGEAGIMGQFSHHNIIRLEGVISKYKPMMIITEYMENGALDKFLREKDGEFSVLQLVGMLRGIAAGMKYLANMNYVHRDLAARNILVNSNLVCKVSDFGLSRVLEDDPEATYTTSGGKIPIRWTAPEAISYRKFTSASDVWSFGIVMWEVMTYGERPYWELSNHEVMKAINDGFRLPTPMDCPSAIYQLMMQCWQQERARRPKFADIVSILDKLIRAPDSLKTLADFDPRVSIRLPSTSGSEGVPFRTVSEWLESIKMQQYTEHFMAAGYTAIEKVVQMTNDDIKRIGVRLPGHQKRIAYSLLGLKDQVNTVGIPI
PAK4 (human), sequence (O96013 whole entry, looked up): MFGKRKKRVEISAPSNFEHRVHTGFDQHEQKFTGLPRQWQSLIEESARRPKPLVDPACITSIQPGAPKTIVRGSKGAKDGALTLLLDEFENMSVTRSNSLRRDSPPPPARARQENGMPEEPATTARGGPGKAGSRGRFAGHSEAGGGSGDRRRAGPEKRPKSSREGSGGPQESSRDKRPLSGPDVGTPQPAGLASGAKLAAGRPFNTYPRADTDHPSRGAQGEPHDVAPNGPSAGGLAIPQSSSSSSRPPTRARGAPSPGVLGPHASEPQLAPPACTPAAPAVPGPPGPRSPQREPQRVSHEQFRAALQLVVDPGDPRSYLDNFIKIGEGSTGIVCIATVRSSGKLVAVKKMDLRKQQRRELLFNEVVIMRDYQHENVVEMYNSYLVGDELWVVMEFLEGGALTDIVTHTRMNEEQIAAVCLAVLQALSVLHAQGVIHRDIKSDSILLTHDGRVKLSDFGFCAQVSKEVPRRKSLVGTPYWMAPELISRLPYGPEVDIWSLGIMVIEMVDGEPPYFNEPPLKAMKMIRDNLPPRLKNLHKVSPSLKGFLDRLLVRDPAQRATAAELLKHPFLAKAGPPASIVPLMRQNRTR
SRC (human), sequence (P12931 whole entry, looked up): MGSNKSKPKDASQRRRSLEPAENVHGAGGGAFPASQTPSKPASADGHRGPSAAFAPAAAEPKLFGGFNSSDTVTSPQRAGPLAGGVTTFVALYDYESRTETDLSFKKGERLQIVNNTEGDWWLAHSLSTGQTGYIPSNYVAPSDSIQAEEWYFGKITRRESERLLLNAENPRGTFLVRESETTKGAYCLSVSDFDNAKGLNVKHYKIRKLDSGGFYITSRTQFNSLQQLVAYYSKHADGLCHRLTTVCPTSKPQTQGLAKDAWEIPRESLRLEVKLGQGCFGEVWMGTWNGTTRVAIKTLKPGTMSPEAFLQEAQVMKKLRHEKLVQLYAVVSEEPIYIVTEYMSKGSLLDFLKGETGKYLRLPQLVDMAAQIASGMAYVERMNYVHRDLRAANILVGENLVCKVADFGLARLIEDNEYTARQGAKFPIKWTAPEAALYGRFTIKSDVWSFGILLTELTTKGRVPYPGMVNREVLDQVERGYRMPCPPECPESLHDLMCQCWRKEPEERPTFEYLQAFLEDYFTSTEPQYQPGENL
CHEK2 (human), sequence (O96017 whole entry, looked up): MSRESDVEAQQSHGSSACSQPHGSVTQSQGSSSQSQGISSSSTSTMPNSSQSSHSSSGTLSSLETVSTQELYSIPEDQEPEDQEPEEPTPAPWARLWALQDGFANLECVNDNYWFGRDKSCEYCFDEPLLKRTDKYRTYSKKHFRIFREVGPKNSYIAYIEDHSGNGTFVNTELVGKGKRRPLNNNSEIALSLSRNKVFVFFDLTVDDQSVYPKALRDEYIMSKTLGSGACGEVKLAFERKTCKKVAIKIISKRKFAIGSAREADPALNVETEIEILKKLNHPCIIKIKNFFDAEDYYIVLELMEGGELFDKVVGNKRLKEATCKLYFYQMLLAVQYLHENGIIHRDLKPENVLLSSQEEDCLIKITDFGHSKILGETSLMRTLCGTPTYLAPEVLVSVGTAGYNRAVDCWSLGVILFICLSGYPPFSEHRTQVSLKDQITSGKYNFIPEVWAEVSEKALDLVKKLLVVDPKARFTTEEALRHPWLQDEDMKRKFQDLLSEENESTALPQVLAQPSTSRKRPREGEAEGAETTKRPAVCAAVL
CaMK1 (human), sequence (Q14012 whole entry, looked up): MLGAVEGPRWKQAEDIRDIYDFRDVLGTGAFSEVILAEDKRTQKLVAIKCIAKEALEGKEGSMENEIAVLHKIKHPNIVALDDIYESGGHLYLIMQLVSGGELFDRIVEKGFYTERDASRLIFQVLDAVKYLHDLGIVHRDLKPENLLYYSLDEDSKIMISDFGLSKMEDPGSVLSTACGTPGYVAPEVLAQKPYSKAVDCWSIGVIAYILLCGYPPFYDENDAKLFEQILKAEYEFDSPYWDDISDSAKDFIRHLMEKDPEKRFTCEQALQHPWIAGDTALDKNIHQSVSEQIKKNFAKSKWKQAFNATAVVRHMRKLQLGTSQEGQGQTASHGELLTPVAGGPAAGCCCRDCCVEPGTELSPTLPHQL
MAPK8 (human), sequence (P45983 whole entry, looked up): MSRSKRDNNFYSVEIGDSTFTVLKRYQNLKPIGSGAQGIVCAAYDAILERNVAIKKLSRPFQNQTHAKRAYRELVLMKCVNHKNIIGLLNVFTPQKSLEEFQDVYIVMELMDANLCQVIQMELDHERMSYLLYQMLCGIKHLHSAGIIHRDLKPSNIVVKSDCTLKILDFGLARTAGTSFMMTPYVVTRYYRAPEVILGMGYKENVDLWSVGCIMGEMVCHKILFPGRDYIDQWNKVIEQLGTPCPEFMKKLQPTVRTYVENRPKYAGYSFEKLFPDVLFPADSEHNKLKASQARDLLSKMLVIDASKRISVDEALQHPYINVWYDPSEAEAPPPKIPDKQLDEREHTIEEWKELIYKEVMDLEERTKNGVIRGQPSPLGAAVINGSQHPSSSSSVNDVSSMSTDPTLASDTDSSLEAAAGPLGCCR
CHEK1 (human), sequence (O14757 whole entry, looked up): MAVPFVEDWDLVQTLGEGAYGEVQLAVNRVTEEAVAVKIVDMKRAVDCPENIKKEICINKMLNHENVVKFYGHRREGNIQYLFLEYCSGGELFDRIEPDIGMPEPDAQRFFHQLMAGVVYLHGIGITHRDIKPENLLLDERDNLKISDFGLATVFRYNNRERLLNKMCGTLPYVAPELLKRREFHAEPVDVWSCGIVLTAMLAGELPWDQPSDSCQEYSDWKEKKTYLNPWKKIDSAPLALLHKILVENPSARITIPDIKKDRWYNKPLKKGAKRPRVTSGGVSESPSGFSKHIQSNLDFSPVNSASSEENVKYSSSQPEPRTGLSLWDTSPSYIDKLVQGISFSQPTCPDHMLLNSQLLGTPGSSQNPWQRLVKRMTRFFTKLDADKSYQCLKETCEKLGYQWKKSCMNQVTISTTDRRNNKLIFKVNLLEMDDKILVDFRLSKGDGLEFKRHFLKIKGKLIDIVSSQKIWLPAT
RPS6KA3 KD1 KD2 (human), sequence (P51812 whole entry, looked up): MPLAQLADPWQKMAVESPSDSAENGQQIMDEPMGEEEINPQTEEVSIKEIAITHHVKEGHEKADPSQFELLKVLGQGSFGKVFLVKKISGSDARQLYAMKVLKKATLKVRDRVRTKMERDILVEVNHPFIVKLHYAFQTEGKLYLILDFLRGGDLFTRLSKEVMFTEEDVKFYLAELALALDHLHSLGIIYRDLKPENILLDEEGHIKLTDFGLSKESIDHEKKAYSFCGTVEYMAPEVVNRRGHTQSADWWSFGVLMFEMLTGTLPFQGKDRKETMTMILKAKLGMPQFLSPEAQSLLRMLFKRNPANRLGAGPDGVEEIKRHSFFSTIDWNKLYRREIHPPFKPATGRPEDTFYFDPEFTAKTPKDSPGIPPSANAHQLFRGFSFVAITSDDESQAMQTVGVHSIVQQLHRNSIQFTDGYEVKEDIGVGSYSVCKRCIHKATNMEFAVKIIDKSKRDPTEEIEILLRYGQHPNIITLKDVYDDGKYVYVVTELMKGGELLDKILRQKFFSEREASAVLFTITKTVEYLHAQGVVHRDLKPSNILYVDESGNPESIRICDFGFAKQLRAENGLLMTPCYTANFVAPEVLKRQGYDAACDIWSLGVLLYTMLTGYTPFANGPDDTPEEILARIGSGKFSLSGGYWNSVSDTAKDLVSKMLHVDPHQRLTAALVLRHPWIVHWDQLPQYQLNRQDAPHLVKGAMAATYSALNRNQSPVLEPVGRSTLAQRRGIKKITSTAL
AURKB (human), sequence (Q96GD4 whole entry, looked up): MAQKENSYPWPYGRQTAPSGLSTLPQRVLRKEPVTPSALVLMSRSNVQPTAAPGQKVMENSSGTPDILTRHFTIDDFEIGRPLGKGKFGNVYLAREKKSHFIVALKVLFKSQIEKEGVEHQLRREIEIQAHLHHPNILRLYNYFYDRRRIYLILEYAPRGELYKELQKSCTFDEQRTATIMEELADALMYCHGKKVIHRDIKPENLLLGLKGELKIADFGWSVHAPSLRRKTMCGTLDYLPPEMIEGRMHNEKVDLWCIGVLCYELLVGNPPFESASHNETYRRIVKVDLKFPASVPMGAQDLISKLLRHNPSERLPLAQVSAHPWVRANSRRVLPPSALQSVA

residual activity ([1]; compound 1.0 µM): 2% | residual activity ([1]; compound 5.0 µM): 2% | residual activity ([1]; compound 10.0 µM): 5% | residual activity ([2]; compound 1.0 µM): 58% | residual activity ([2]; compound 5.0 µM): 34% | residual activity ([2]; compound 10.0 µM): 94% | residual activity ([3]; compound 1.0 µM): 3% | residual activity ([3]; compound 5.0 µM): 1% | residual activity ([4]; compound 1.0 µM): 99% | residual activity ([4]; compound 5.0 µM): 76% | residual activity ([4]; compound 10.0 µM): 89% | residual activity ([5]; compound 1.0 µM): 85% | residual activity ([5]; compound 5.0 µM): 18% | residual activity ([5]; compound 10.0 µM): 96% | residual activity ([6]; compound 1.0 µM): 72% | residual activity ([6]; compound 5.0 µM): 30% | residual activity ([6]; compound 10.0 µM): 87% | residual activity ([7]; compound 1.0 µM): 86% | residual activity ([7]; compound 5.0 µM): 45% | residual activity ([7]; compound 10.0 µM): 101% | residual activity ([8]; compound 1.0 µM): 87% | residual activity ([8]; compound 5.0 µM): 62% | residual activity ([8]; compound 10.0 µM): 85% | residual activity ([9]; compound 1.0 µM): 102% | residual activity ([9]; compound 5.0 µM): 109% | residual activity ([9]; compound 10.0 µM): 99% | residual activity ([10]; compound 1.0 µM): 47% | residual activity ([10]; compound 5.0 µM): 15% | residual activity ([11]; compound 1.0 µM): 106% | residual activity ([11]; compound 5.0 µM): 77% | residual activity ([12]; compound 1.0 µM): 33% | residual activity ([12]; compound 5.0 µM): 6% | residual activity ([12]; compound 10.0 µM): 68% | residual activity ([13]; compound 1.0 µM): 85% | residual activity ([13]; compound 5.0 µM): 66% | residual activity ([14]; compound 1.0 µM): 54% | residual activity ([14]; compound 5.0 µM): 33% | residual activity ([14]; compound 10.0 µM): 74% | residual activity ([15]; compound 1.0 µM): 5% | residual activity ([15]; compound 5.0 µM): 2% | residual activity ([16]; compound 1.0 µM): 103% | residual activity ([16]; compound 5.0 µM): 102% | residual activity ([17]; compound 1.0 µM): 12% | residual activity ([17]; compound 5.0 µM): 6% | residual activity ([17]; compound 10.0 µM): 6% | residual activity ([18]; compound 1.0 µM): 9% | residual activity ([18]; compound 5.0 µM): 2% | residual activity ([19]; compound 1.0 µM): 11% | residual activity ([19]; compound 5.0 µM): 6% | residual activity ([20]; compound 1.0 µM): 98% | residual activity ([20]; compound 5.0 µM): 89% | residual activity ([21]; compound 1.0 µM): 99% | residual activity ([21]; compound 5.0 µM): 99% | residual activity ([21]; compound 10.0 µM): 90% | residual activity ([22]; compound 1.0 µM): 137% | residual activity ([22]; compound 5.0 µM): 169% | residual activity ([23]; compound 1.0 µM): 42% | residual activity ([23]; compound 5.0 µM): 17% | residual activity ([23]; compound 10.0 µM): 89% | residual activity ([24]; compound 1.0 µM): 6% | residual activity ([24]; compound 5.0 µM): 3% | residual activity ([24]; compound 10.0 µM): 7% | residual activity ([25]; compound 1.0 µM): 6% | residual activity ([25]; compound 5.0 µM): 8% | residual activity ([25]; compound 10.0 µM): 53% | residual activity ([26]; compound 1.0 µM): 30% | residual activity ([26]; compound 5.0 µM): 2% | residual activity ([27]; compound 1.0 µM): 119% | residual activity ([27]; compound 5.0 µM): 45% | residual activity ([27]; compound 10.0 µM): 98% | residual activity ([28]; compound 1.0 µM): 95% | residual activity ([28]; compound 5.0 µM): 87% | residual activity ([28]; compound 10.0 µM): 78% | residual activity ([29]; compound 1.0 µM): 59% | residual activity ([29]; compound 5.0 µM): 22% | residual activity ([29]; compound 10.0 µM): 77% | residual activity ([30]; compound 1.0 µM): 101% | residual activity ([30]; compound 5.0 µM): 106% | residual activity ([30]; compound 10.0 µM): 88% | residual activity ([31]; compound 1.0 µM): 68% | residual activity ([31]; compound 5.0 µM): 40% | residual activity ([32]; compound 1.0 µM): 86% | residual activity ([32]; compound 5.0 µM): 69% | residual activity ([32]; compound 10.0 µM): 26% | residual activity ([33]; compound 1.0 µM): 89% | residual activity ([33]; compound 5.0 µM): 88% | residual activity ([33]; compound 10.0 µM): 88% | residual activity ([34]; compound 1.0 µM): 91% | residual activity ([34]; compound 5.0 µM): 75% | residual activity ([34]; compound 10.0 µM): 97% | residual activity ([35]; compound 1.0 µM): 118% | residual activity ([35]; compound 5.0 µM): 102% | residual activity ([36]; compound 1.0 µM): 74% | residual activity ([36]; compound 5.0 µM): 51% | residual activity ([36]; compound 10.0 µM): 87%
Compound: Oc1ccc2ccccc2c1SSc1c(O)ccc2ccccc12
